According to ChEMBL document CHEMBL5120836, “Discovery of novel 7,8-dihydropteridine-6(5H)-one-based DNA-PK inhibitors as potential anticancer agents via scaffold hopping strategy” (Eur J Med Chem, 2022):
≈ marks a conversion by molar mass, not a printed value. Calls of active or inactive are those of the source. No cut-off for these calls is given here.

Columns and labels:
[1] = system: MCF7; experiment: Synergistic antiproliferative activity against human MCF7 cells assessed as combination index at 200 uM in presence of 0.1 uM doxorubicin by MTT assay; format: functional
[2] = system: HL-60; experiment: Synergistic antiproliferative activity against human HL-60 cells assessed as inhibition of cell growth in presence of 100 nM doxorubicin by MTT assay; format: functional, cell-based
[3] = system: HL-60; experiment: Synergistic antitumor activity against human HL-60 cells xenografted in BALB/c nude mouse assessed as tumor volume at 100 mg/kg, po qd for 16 days co-administered with doxorubicin (reference value: 32.2%); format: functional; conditions: HL-60, 384 h, time 16 day
[4] = Toxicity in BALB/c nude mouse xenografted with human HL-60 cells assessed as PCT level at 100 mg/kg, po qd for 16 days (reference value: 0.7%); format: organism-based; conditions: in vivo, 384 h, time 16 day
[5] = system: HCT-116; experiment: Synergistic antiproliferative activity against human HCT-116 cells assessed as combination index at 100 uM incubated for 48 hrs in presence of 0.1 to 50 uM doxorubicin by MTT assay; format: functional
[6] = Kinetic solubility of the compound in phosphate-buffered solution at pH 7.4 incubated for 24 hrs by HPLC-MS/MS analysis; format: physicochemical; conditions: phosphate buffer, read-out: Kinetic_solubility
[7] = target: Phosphatidylinositol 4,5-bisphosphate 3-kinase catalytic subunit gamma isoform (Homo sapiens, UniProt P48736); experiment: Inhibition of human PI3Kgamma by ADP-Glo assay; format: toxicity
[8] = system: HCT-116; experiment: Induction of apoptosis in human HCT-116 cells assessed as necrotic cells at 1 uM incubated for 24 hrs by AnnexinV-FITC/PI staining based flow cytometry (reference value: 0.031%); format: functional
[9] = target: DNA-dependent protein kinase catalytic subunit (Homo sapiens, UniProt P78527); experiment: Inhibition of human native full length DNA-PK by ADP-Glo assay
[10] = system: HL-60; experiment: Synergistic antiproliferative activity against human HL-60 cells assessed as combination index at 0.1 uM in presence of 0.1 uM doxorubicin by MTT assay; format: functional
[11] = system: MDA-MB-231; experiment: Synergistic antiproliferative activity against human MDA-MB-231 cells assessed as combination index at 100 uM in presence of 0.1 uM doxorubicin by MTT assay; format: functional
[12] = system: HCT-116; experiment: Induction of apoptosis in human HCT-116 cells assessed as necrotic cells at 1 uM incubated for 24 hrs in presence of 100 nM doxorubicin by AnnexinV-FITC/PI staining based flow cytometry (reference value: 0.031%); format: functional
[13] = system: MDA-MB-231; experiment: Synergistic antiproliferative activity against human MDA-MB-231 cells assessed as combination index at 0.5 uM in presence of 0.1 uM doxorubicin by MTT assay; format: functional
[14] = Tmax in Sprague-Dawley rat at 5 mg/kg, po; format: ADME, organism-based; conditions: in vivo
[15] = system: HCT-116; experiment: Disruption of mitochondrial function in human HCT-116 cells assessed as decrease in mitochondrial membrane potential by measuring proportion of cells with red fluorescence at 1 uM incubated for 24 hrs by JC-1 staining based flow cytometry (reference value: 99.4%); format: functional; parameters: scale not given: the % may be the effect or the level left
[16] = Toxicity in BALB/c nude mouse xenografted with human HL-60 cells assessed as HGB level at 100 mg/kg, po qd for 16 days (reference value: 156 g/L); format: organism-based; conditions: in vivo, 384 h, time 16 day
[17] = system: HL-60; experiment: Synergistic antiproliferative activity against human HL-60 cells assessed as combination index at 50 uM in presence of 0.1 uM doxorubicin by MTT assay; format: functional
[18] = system: HepG2; experiment: Synergistic antiproliferative activity against Doxorubicin-resistant human HepG2 cells assessed as combination index at 50 uM in presence of 0.1 uM doxorubicin by MTT assay; format: functional
[19] = Half life in Sprague-Dawley rat at 5 mg/kg, po; format: ADME, organism-based; conditions: in vivo
[20] = Intrinsic clearance in human liver microsomes; format: ADME, Microsome; conditions: read-out: CLH
[21] = system: MCF7; experiment: Synergistic antiproliferative activity against human MCF7 cells assessed as combination index at 1 uM in presence of 0.1 uM doxorubicin by MTT assay; format: functional
[22] = system: HCT-116; experiment: Induction of apoptosis in human HCT-116 cells assessed as late apoptotic cells at 1 uM incubated for 24 hrs in presence of 100 nM doxorubicin by AnnexinV-FITC/PI staining based flow cytometry (reference value: 3.07%); format: functional
[23] = Toxicity in BALB/c nude mouse xenografted with human HL-60 cells assessed as PDW level at 100 mg/kg, po qd for 16 days (reference value: 8.16 fL); format: organism-based; conditions: in vivo, 384 h, time 16 day
[24] = system: HepG2; experiment: Synergistic antiproliferative activity against Doxorubicin-resistant human HepG2 cells assessed as inhibition of cell growth in presence of 100 nM doxorubicin by MTT assay; format: functional, cell-based
[25] = Half life in rat liver microsomes; format: ADME, Microsome
[26] = Kinetic solubility of the compound in phosphate-buffered solution at pH 6.4 incubated for 24 hrs by HPLC-MS/MS analysis; format: physicochemical; conditions: phosphate buffer, read-out: Kinetic_solubility
[27] = Intrinsic clearance in rat liver microsomes; format: ADME, Microsome; conditions: read-out: CLH
[28] = system: HepG2; experiment: Synergistic antiproliferative activity against Doxorubicin-resistant human HepG2 cells assessed as combination index at 0.1 uM in presence of 0.1 uM doxorubicin by MTT assay; format: functional
[29] = Toxicity in BALB/c nude mouse xenografted with human HL-60 cells assessed as platelets level at 100 mg/kg, po qd for 16 days (reference value: 738.5X10^9/L); format: organism-based; conditions: in vivo, 384 h, time 16 day
[30] = Cmax in Sprague-Dawley rat at 5 mg/kg, po; format: ADME, organism-based; parameters: dose 5 mg/kg, route po; conditions: in vivo
[31] = system: HepG2; experiment: Synergistic antiproliferative activity against Doxorubicin-resistant human HepG2 cells assessed as combination index at 100 uM in presence of 0.1 uM doxorubicin by MTT assay; format: functional
[32] = Toxicity in BALB/c nude mouse xenografted with human HL-60 cells assessed as serum lymphocytes content at 100 mg/kg, po qd for 16 days (reference value: 2.65X10^9/L); format: organism-based; conditions: in vivo, 384 h, time 16 day
[33] = system: HepG2; experiment: Synergistic antiproliferative activity against Doxorubicin-resistant human HepG2 cells assessed as combination index at 3.1 uM in presence of 0.1 uM doxorubicin by MTT assay; format: functional
[34] = Toxicity in BALB/c nude mouse xenografted with human HL-60 cells assessed as MCH level at 100 mg/kg, po qd for 16 days (reference value: 14.1 pg); format: organism-based; conditions: in vivo, 384 h, time 16 day
[35] = target: Phosphatidylinositol 4,5-bisphosphate 3-kinase catalytic subunit alpha isoform (Homo sapiens, UniProt P42336); experiment: Inhibition of human PI3Kalpha by Kinase-Glo assay; format: toxicity
[36] = system: MCF7; experiment: Synergistic antiproliferative activity against human MCF7 cells assessed as combination index at 12.5 uM in presence of 0.1 uM doxorubicin by MTT assay; format: functional
[37] = Lipophilicity, logP of the compound; format: physicochemical; conditions: octanol/water
[38] = system: MCF7; experiment: Synergistic antiproliferative activity against human MCF7 cells assessed as inhibition of cell growth in presence of 100 nM doxorubicin by MTT assay; format: functional, cell-based
[39] = system: HepG2; experiment: Synergistic antiproliferative activity against Doxorubicin-resistant human HepG2 cells assessed as combination index at 0.5 uM in presence of 0.1 uM doxorubicin by MTT assay; format: functional
[40] = system: MCF7; experiment: Synergistic antiproliferative activity against human MCF7 cells assessed as combination index at 0.5 uM in presence of 0.1 uM doxorubicin by MTT assay; format: functional

Sequence of Phosphatidylinositol 4,5-bisphosphate 3-kinase catalytic subunit gamma isoform (P48736 whole entry, canonical isoform): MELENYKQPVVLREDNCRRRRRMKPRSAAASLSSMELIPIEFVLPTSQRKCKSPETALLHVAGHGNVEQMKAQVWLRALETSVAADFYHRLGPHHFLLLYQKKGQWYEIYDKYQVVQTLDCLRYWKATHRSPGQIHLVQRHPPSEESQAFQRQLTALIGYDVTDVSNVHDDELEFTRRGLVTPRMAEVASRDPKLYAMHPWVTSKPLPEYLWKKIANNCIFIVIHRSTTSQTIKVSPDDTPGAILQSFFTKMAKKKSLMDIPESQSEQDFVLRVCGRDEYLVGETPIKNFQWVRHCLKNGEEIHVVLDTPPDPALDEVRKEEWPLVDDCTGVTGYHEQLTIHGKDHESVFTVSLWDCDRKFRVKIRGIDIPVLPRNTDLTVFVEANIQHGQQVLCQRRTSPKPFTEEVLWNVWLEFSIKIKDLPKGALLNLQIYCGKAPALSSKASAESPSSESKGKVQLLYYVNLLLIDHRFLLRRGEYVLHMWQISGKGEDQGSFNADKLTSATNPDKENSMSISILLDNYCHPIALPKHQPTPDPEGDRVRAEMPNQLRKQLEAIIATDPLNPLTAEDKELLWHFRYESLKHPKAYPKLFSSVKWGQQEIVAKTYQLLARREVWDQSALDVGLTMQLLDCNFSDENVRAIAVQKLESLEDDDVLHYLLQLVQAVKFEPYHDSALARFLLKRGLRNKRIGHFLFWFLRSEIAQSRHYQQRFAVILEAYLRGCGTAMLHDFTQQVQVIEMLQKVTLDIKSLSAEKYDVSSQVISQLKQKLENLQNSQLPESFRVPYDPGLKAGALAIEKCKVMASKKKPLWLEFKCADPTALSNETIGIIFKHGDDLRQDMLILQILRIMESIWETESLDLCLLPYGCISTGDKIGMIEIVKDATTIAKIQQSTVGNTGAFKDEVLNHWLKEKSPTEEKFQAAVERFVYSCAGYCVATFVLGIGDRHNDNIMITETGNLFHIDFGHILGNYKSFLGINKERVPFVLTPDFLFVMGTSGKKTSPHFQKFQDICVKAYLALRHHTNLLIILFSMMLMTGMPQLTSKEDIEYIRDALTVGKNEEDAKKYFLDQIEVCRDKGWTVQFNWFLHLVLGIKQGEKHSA
Sequence of Phosphatidylinositol 4,5-bisphosphate 3-kinase catalytic subunit alpha isoform (P42336 whole entry, canonical isoform): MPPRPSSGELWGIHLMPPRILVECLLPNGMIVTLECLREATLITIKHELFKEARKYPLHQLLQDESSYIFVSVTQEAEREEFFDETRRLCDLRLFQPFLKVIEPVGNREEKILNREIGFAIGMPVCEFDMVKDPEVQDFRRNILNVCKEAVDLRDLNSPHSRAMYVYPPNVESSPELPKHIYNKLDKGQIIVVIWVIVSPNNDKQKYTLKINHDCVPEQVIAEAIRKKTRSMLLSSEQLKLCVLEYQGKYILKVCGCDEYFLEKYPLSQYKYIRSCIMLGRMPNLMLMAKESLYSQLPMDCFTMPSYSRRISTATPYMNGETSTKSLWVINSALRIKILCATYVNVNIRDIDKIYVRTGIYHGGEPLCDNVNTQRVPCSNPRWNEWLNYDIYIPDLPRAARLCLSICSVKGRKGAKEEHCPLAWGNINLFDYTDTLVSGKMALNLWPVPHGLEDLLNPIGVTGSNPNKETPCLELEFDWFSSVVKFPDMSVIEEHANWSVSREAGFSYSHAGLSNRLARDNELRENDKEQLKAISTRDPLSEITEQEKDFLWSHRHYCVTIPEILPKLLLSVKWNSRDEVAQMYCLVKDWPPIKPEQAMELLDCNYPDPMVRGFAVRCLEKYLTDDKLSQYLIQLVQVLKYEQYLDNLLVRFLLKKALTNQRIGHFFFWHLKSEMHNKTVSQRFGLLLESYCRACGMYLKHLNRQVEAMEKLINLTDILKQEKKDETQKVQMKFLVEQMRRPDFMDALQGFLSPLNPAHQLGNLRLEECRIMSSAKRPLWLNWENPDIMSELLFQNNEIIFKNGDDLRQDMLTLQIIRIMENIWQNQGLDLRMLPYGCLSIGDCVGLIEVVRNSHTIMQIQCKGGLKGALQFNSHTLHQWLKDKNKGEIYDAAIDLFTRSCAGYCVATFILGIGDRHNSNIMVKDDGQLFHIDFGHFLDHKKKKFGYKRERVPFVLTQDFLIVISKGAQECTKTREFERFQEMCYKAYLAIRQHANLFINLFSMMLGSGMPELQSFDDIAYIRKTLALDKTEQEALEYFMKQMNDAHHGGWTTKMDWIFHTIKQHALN

Structure (SMILES): Cc1cc2ncnn2cc1Nc1ncc2c(n1)N(C1CCOCC1)CC(=O)N2C
- CI [1]: 0.2697
- IC50 [2]: < 100 nM
- inhibition in vivo at 100 mg/kg [3]: 62.4%
- Activity [4]: 0.641%
- CI [5]: <0.1
- solubility kinetic at 24 h [6]: 80 µg/mL (≈ 203 µM)
- IC50 [7]: 281 nM
- Activity [8]: 0.015%
- IC50 [9]: 0.8 nM
- CI [10]: 0.00121
- CI [11]: 0.9806
- Activity [12]: 0.002%
- CI [13]: 0.3617
- Tmax [14]: 0.42 h
- Activity [15]: 96.4%
- Activity [16]: 148 g/L
- CI [17]: 0.2758
- CI [18]: 0.09496
- half-life [19]: 1.59 h
- microsomal CLint [20]: < 9.6 µL/min/mg
- CI [21]: 0.03832
- Activity [22]: 7.51%
- Activity [23]: 7.4 fL
- Activity [24]: Active
- half-life [25]: > 2.42 h
- solubility kinetic at 24 h [26]: 72.2 µg/mL (≈ 183 µM)
- microsomal CLint [27]: < 9.6 µL/min/mg
- CI [28]: 0.06059
- Activity [29]: 750 10^9/L
- Cmax [30]: 810 ng/mL
- CI [31]: 0.1244
- Activity [32]: 3.2 10^9/L
- CI [33]: 0.02104
- Activity [34]: 14.2 pg
- IC50 [35]: 187 nM
- CI [36]: 0.06131
- logP [37]: 1.28
- Activity [38]: Active
- CI [39]: 0.01657
- CI [40]: 0.04646
